For nine compounds, inhibition, melting point and IC50 results are on record in patent US8466145B2, “Dipeptidyl peptidase IV inhibitors” (Orchid Chemicals & Pharmaceuticals Limited, priority 2009, dated 2013).

For series [1], the target named is T1, human recombinant Dipeptidyl peptidase IV enzyme (hrDPP IV) (Homo sapiens, UniProt P27487).
T1 construct: purchased R&D systems
The experiment in a line: DPP IV assay, cleavage of H-Gly-Pro-AMC by human recombinant DPP-IV enzyme. To be noted: for inhibition at 0.3 µM: 300 nM compound concentration. Format: biochemical. The method, then:
DPP IV activity was determined by the cleavage rate of 7-amino 4-methylcoumarin (AMC) from the substrate H-Gly-Pro-AMC. In brief, the assay was conducted by adding 3 ng of human recombinant Dipeptidyl peptidase IV enzyme (hrDPP IV, available commercially from R&D systems) in 70 μL of the assay buffer (25 mM HEPES, 140 mM NaCl and 1% BSA, pH 7.8) to a 96 well black flat bottom microtitre plate. Test compounds were added as 10 μL additions to all wells except blank and total activity wells. After incubation of test substance with enzyme for 60 minutes at room temperature, 10 μL of 100 μM substrate H-Gly-Pro-AMC was added. After mixing, the plate was left for 20 minutes at room temperature. Then the reaction was terminated by addition of 10 μL of 25% glacial acetic acid. Fluorescence was measured using Spectra Max Gemini XS (Molecular Devices, USA) at an excitation filter of 360 nm and emission filter of 460 nm.
Test compounds dissolved in DMSO were diluted with assay buffer at different concentrations and tested in duplicates. Percentage inhibition was calculated with respect to total activity. IC50 value was calculated using Prism Software.

T1 sequence (P27487 whole entry): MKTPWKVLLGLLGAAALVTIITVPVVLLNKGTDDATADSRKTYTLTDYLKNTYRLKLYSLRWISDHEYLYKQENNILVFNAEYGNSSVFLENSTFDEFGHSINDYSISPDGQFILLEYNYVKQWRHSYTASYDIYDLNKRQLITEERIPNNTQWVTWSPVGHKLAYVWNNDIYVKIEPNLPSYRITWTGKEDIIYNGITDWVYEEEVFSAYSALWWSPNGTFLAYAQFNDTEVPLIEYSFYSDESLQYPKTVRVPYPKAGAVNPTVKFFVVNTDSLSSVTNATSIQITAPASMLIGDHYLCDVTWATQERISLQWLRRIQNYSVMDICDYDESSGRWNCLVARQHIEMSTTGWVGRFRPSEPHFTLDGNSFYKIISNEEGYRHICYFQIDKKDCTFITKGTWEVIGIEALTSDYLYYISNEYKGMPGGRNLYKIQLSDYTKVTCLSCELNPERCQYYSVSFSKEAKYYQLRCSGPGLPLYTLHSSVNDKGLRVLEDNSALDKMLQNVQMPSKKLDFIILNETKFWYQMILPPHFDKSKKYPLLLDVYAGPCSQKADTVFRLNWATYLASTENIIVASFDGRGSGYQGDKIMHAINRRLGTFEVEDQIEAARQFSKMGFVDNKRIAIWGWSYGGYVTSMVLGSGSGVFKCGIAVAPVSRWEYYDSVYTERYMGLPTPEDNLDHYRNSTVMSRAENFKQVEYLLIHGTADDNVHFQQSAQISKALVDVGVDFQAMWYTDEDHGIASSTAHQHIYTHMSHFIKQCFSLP

`CC(C)c1noc([C@]2(C)CC[C@H](NCC(=O)N3C[C@@H](F)C[C@H]3C#N)C2(C)C)n1` [Example 67, (2S,4S)-4-Fluoro-1-(2-((1S,3R)-3-(3-isopropyl-1,2,4-oxadiazol-5-yl)-2,2,3-trimethylcyclopentylamino)acetyl)pyrrolidine-2-carbonitrile] gave a melting point of 82 to 85 °C. For the same compound, the inhibition at 0.3 µM in series [1] is 79.2%.

`CC1(C)[C@H](Cc2noc(C3CCCCC3)n2)CC[C@]1(C)NCC(=O)N1C[C@@H](F)C[C@H]1C#N` [Example 59, (2S,4S)-1-(2-((1S,3S)-3-((5-Cyclohexyl-1,2,4-oxadiazol-3-yl)methyl)-1,2,2-trimethylcyclopentylamino)acetyl)-4-fluoropyrrolidine-2-carbonitrile] had a melting point of 152 to 153 °C. The inhibition at 0.3 µM in series [1] is 67.7%.

Turning to `CC1(C)[C@@H](CS(=O)(=O)c2ccc(S(C)(=O)=O)cc2)CC[C@@]1(C)NCC(=O)N1CCC[C@H]1C#N` [Example 44, (S)-1-(2-((1R,3S)-1,2,2-Trimethyl-3-((4-(methylsulfonyl)phenylsulfonyl)methyl)cyclopentylamino)acetyl)pyrrolidine-2-carbonitrile], the melting point is 162 to 166 °C. In addition, the IC50 in series [1] came to 582 nM.

In turn, `CC1(C)[C@H](CN2CCCC2)CC[C@]1(C)NCC(=O)N1C[C@@H](F)C[C@H]1C#N` [Example 37, (2S,4S)-4-Fluoro-1-(2-((1S,3R)-1,2,2-trimethyl-3-(pyrrolidin-1-ylmethyl)cyclopentylamino)acetyl)pyrrolidine-2-carbonitrile] registered a melting point of 123 to 126 °C. Also, the half-maximal inhibitory concentration (IC50) in series [1] was found to be 22.4 nM.

Compound `CN1C[C@]2(C)CC[C@](NCC(=O)N3C[C@@H](F)C[C@H]3C#N)(C1)C2(C)C` [Example 76, (2S,4S)-4-Fluoro-1-(2-((1R,5R)-3,5,8,8-tetramethyl-3-azabicyclo[3.2.1]octan-1-ylamino)acetyl)pyrrolidine-2-carbonitrile] displayed a melting point of 122 to 126 °C. The inhibition at 0.3 µM in series [1] turned out to be 4.25%.

For `CC(C)(C)c1nc(C[C@@H]2CC[C@](C)(NCC(=O)N3C[C@@H](F)C[C@H]3C#N)C2(C)C)no1` [Example 58, (2S,4S)-1-(2-((1S,3S)-3-((5-tert-Butyl-1,2,4-oxadiazol-3-yl)methyl)-1,2,2-trimethylcyclopentylamino)acetyl)-4-fluoropyrrolidine-2-carbonitrile], the melting point lay in the range of 152 to 154 °C. Further, the inhibition at 0.3 µM in series [1] worked out at 91.4%.

For `CC1(C)[C@H](CNS(C)(=O)=O)CC[C@]1(C)NCC(=O)N1C[C@@H](F)C[C@H]1C#N` [Example 18, N-(((1R,3S)-3-(2-((2S,4S)-2-Cyano-4-fluoropyrrolidin-1-yl)-2-oxoethylamino)-2,2,3-trimethylcyclopentyl)methyl)methanesulfonamide], the melting point lay within 154 to 157 °C. The inhibition at 0.3 µM in series [1] was found to be 84.9%.

In the case of `CC1(C)[C@H](Cn2cc(CO)nn2)CC[C@]1(C)NCC(=O)N1C[C@@H](F)C[C@H]1C#N` [Example 16, (2S,4S)-4-Fluoro-1-(2-((1S,3R)-3-((4-(hydroxymethyl)-1H-1,2,3-triazol-1-yl)methyl)-1,2,2-trimethylcyclopentylamino)acetyl)pyrrolidine-2-carbonitrile], the melting point is 76 to 78 °C. Besides, in series [1], the IC50 came out at 32.5 nM.

With `CC1(C)[C@H](Cn2nccn2)CC[C@]1(C)NCC(=O)N1C[C@@H](F)C[C@H]1C#N` [Example 12, (2S,4S)-1-(2-((1S,3R)-3-((2H-1,2,3-Triazol-2-yl)methyl)-1,2,2-trimethylcyclopentylamino)acetyl)-4-fluoropyrrolidine-2-carbonitrile], the melting point was in the range of 142 to 144 °C. Moreover, the IC50 in series [1] turned out to be 37.2 ± 3.67 nM.

The term inhibition denotes the drop in the measured response relative to a control, in per cent. What is called melting point is the temperature, or range, at which the solid turns liquid. One may read the IC50 as the midpoint of a concentration-inhibition curve.
